From ChEMBL document CHEMBL3871301, “Biotransformation of isofraxetin-6-O-β-d-glucopyranoside by Angelica sinensis (Oliv.) Diels callus” (Bioorg Med Chem Lett, 2017)

Tests used:
[1] = cells; details: Mus musculus, BV-2, 24 h
Description: Antineuroinflammatory activity in mouse BV2 cells assessed as inhibition of LPS-induced NO production after 24 hrs in presence of LPS by Griess reaction based assay

[2] = species on record: Mus musculus; experiment: Cytotoxicity against mouse BV2 cells assessed as reduction in cell viability at antineuroinflammatory IC50 after 24 hrs in presence of LPS by MTT assay; assay type: toxicity, cell-based; details: bv-2, 24 h

Row | SMILES | IC50 [1] | Activity [2]
1 | COc1cc2c(c(OC)c1OC)-c1c(cc(OC)c(OC)c1OC)C[C@@](C)(O)[C@@H](C)C2 | > 100 µM | –
2 | COc1ccc(Cc2ccc(OC)cc2)cc1 | 1.22 µM | Non-Toxic
3 | COC(=O)Nc1ccc(C)c(NC(=O)OC)c1 | 10.6 µM | Non-Toxic
4 | NC(=O)Cc1ccccc1 | > 100 µM | –
5 | COc1cc2oc(=O)ccc2c(O)c1O | > 100 µM | –
6 | COc1cc([C@@H]2COc3c(c(OC)cc4ccc(=O)oc34)O2)ccc1O | > 100 µM | –
7 | COc1cc2ccc(=O)oc2c(OC)c1O | > 100 µM | –
8 | O=Cc1c[nH]c2ccccc12 [3-FORMYLINDOLE] | 0.76 µM | Non-Toxic
9 | COc1cc([C@H]2Oc3c(OC)cc4ccc(=O)oc4c3O[C@@H]2CO)ccc1O [CLEOMISCOSIN A] | > 100 µM | –
10 | CN(C)c1ccc(O)c2c1C[C@H]1C[C@H]3[C@H](N(C)C)C(O)=C(C(N)=O)C(=O)[C@@]3(O)C(O)=C1C2=O [MINOCYCLINE] | 35.8 µM | –
11 | O=c1cc[nH]c(=O)[nH]1 [URACIL] | > 100 µM | –
12 | COc1cc2c(c(OC)c1OC)-c1c(cc3c(c1OC)OCO3)C[C@H](C)[C@H](C)C2 [WUWEIZISU B] | > 100 µM | –
